Measured values as given in the NIST ThermoML archive (doi:10.1016/j.fluid.2016.10.024).
± gives the expanded uncertainty stated by the source.

Assay: refractive index (Na D-line) (dimensionless)
Conditions: 293.15 K; 101.33 kPa; Liquid; Standard Abbe refractometry

**Q.** For CC(C)=O [acetone], which refractive index is on record?
**A.** 1.3588 ± 0.0011

**Q.** With CCC(C)O (stereo not drawn) [butan-2-ol] as the compound, how does the refractive index read?
**A.** 1.3978 ± 0.0011

**Q.** With CCC(=O)O [propanoic acid] as the compound, how does the refractive index read?
**A.** 1.3809 ± 0.001
